The results in this text go back to ChEMBL document CHEMBL3396980, “Total synthesis of Herbarin A and B, determination of their antioxidant properties and toxicity in zebrafish embryo model” (Bioorg Med Chem Lett, 2015).

For data set [1], the species on record is Danio rerio. Description: Toxicity in wild type zebrafish embryo in E3 medium treated for 2 days observed on 24 hrs of post fertilization by microscopy. The conditions noted are these: in vivo, 48 h. It is filed as organism-based.
A short description of data set [2]: Antioxidant activity assessed as ferric ion reducing activity using fe3+-TPTZ assessed as fe2+-TPTZ formation at 0.1 to 1 mM by spectrophotometry based FRAP assay. The class given is physicochemical. The conditions noted are these: 1000 µM.
The species entered for data set [3] is Danio rerio. Nature of the data set: Toxicity in wild type zebrafish embryo in E3 medium assessed as teratogenicity treated at 9 to 190 nM for 2 days observed on 24 hrs of post fertilization by microscopy. The conditions noted are these: in vivo, 48 h, 0.19 µM. It is filed as organism-based.

Regarding `COc1cc(=O)oc(/C=C/C=C/C(=O)O)c1C`, the Activity result in the data set filed under Danio rerio [1] was “Non-toxic”; in data set [2], “Active”.

In the case of `COc1cc(=O)oc(/C=C/C(=O)O)c1C`, the values for the Activity (in the data set filed under Danio rerio [3]; in data set [2]) were 100% and “Active”, respectively.
